Reference: patent US20250032425A1, “FIRST IN CLASS USE OF ESTROGEN RECEPTOR BETA AGONISTS IN TREATING ANGELMAN SYNDROME AND RELEVANT AUTISM SPECTRUM DISORDERS” (BROWN UNIVERSITY, priority 2023, published 2025)
“Also recorded” adds a separate entry of the source.

Tests used:
[1] = system: Angelman syndrome (AS) mice; test: Accelerating Rotarod test in AS mice; format: in vivo, mouse; conditions: 10 mg/kg daily IP, days 1-3, vs AS vehicle
Description: Animal handling and experimental use strictly followed NIH guidelines and protocols approved by the local Institutional Animal Care and Use Committee (IACUC) of Brown University. In all experiments, Mice were age and gender-matched. Multiple liters were used for all experiments. Weaned mice, housed in groups of two to four per cage, were maintained on a 12-h light/dark cycle with food and water ad libitum.
ESRβ agonist AC-186 treatment in vivo. 10 mg/kg AC-186 was daily IP delivered after dissolved at high concentration (30 mg/ml) in DMSO and further diluted in 20% PEG300. Vehicle groups received the same volume and concentration of diluted DMSO in 20% PEG300. Treatment started at P13 and continued until mice were sacrificed at P42.
This involved conducting two trials per day for three consecutive days, with a 20-minute rest interval between trials. During each trial, mice were placed on a rod that accelerated from 4 to 40 RPM over a five-minute period, and the time until each mouse fell was recorded. The average duration before falling was tracked and graphed across the three-day span.

[2] = system: AS iOPCs (UBE3A truncation mutation); test: Proliferation of AS patient-derived iOPCs (EdU, Ki67); format: cell-based, human; conditions: 10 μM, 24 hours, vs vehicle
Description: FIGS. 25A-25I depict the role of UBE3A via ESR-β signaling on OPC proliferation and oligodendrocyte differentiation. FIG. 25A: qPCR to evaluate the differentiation and maturation for myelination of iOPCs after persistent UBE3A knockdown, by measuring mRNA transcripts of UBE3A and myelination markers MBP and PLP1 in iOPCs treated with siNC or siUBE3A and differentiated in vitro. MBP and PLP1 mRNA expression decreased in iOLs treated with siUBE3A. n=3 independent experiments. FIG. 25B: In vitro myelination assays analyzed the effect of persistent UBE3A knockdown on iOPCs differentiation and maturation in nano-fiber-based cultures, with immunofluorescent staining of MBP (magenta) and DAPI (blue) and imaging of nano-fibers (grey). Quantification by the area (left graph) and density (right graph) of MBP fluorescent signals (normalized to siNC=1.0). MBP area and intensity decreased in cells treated with siUBE3A. n=3 experiments. Scale bar: 25 μm. […] Protein levels of ESR-β in UBE3A-deficient iOPCs and subsequently differentiated iOLs were quantified, normalized against the loading control GAPDH, and expressed relative to the iOPC+siNC control condition (set at 1.0). […] Levels of Ki67 and Myelin Associated Glycoprotein (MAG) were measured in UBE3A-deficient iOPCs and iOLs differentiated from them, normalized against GAPDH, and compared to the iOPC+siNC condition. n=4 experiments. […]

Oc1ccc(C2(c3ccccc3F)CCC(F)(F)CC2)cc1 [AC-186]
Rotarod time to fall [1]: significant improvements; also recorded: increased
ratio of EdU positive iOPCs (proliferation) ([2]; AS iOPCs): significantly enhanced the proliferation; also recorded: increased
Ki67 expression ([2]; AS-derived OPCs): increased Ki67 expression
